According to publication PMC4516231 (Journal of pharmaceutical sciences, 2012):
Values after ≈ are worked out from the molar mass of the structure shown.

How the values were obtained:
[1] = Aqueous solubility in distilled–deionized water; type: physicochemical; conditions: for Reduction in solubility: DDW, relative to CDF; for Reduction in solubility / Solubility in DDW: 37°C; for Solubility in DDW: distilled–deionized water, 24 h
[2] = Tissue; type: in vitro ADME, rabbit; conditions: relative to parent CDF

Row | Reduction in solubility [1] | Solubility in DDW [1] | solubility at 24 h ([1]; distilled-deionized water) | Fold Increase in retina–choroid partition coefficient [2] | SMILES
1 | about 56 fold | 1.27 ± 0.48 mg/mL (≈ 3.68 mM) | – | – | CCCCCCOP1(=O)COC(Cn2ccc(N)nc2=O)CO1 (stereo not drawn) [C6-cCDF, C6-cyclic Cidofovir]
2 | ~74 fold | 0.95 ± 0.37 mg/mL (≈ 2.21 mM) | – | – | CCCCCCCCCCCCOP1(=O)CO[C@@H](Cn2ccc(N)nc2=O)CO1 (stereo partly drawn) [C12-cCDF, C12-cyclic Cidofovir]
3 | – | – | 72.4 ± 3.33 mg/mL (≈ 259 mM) | 1 fold | Nc1ccn(C[C@@H](CO)OCP(=O)(O)O)c(=O)n1 [CDF, Cidofovir, reference compound]
